Patent publication US7414138B2, “Benzoxazole and benzodiazole UV-A sunscreens” (DSM IP Assets B.V., priority 2002, dated 2008)

Experiments:
[1] = Photostability, irradiation in high dilution with 150 W Hg-lamp (on-line Hg-lamp/HPLC); type: physicochemical; conditions: for photostability (in words): irradiated in high dilution with a Hg-lamp 150 W from Heraeus
Method: The photostability is measured in an on-line system Hg-lamp/HPLC, using a 150 W Hg-lamp of Heraeus with Pyrex filter (2.3 mm) and a Teflon capillary tube with 0.3 mm inside diameter and a total length of 10 m. 3.6. mg of the sample is dissolved in 16 ml of MeOH and 10 μl of this solution injected. The degradation products are not separated. UV-absorption at a wavelength of 358 nm of the irradiated solution is measured periodically up to 14 minutes and the result is compared with the corresponding photostability of butyl methoxy dibenzoylmethane. The product was detected in >90%, indicating photostability, whereas only 16% of butyl methoxy dibenzoylmethane could be detected after 14 minutes of irradiation.
Alternatively, the measurement is performed according to the protocol described in the International Journal of Cosmetic Science 18, 167-177 (1996).

[2] = Solubility measurement in cosmetic solvents (saturated solution, UV spectroscopy); conditions: for solubility in Crodamol DA: Crodamol DA (diisopropyl adipate); for solubility in Crodamol DA / solubility in Cétiol LC: room temperature, 18 hours; for solubility in Cétiol LC: Cétiol LC (cocoyl caprylate caprate)
Method: An excess of the UV sunscreen was placed in a flask, containing Cétiol LC (cocoyl caprylate caprate) and Crodamol DA (diisopropyl adipate), respectively. The suspension was mixed and treated in an ultrasound bath for 10 minutes. After standing at room temperature for 18 hours, the solution over the remaining crystals was filtered through a millipore microfilter (pore size of 0.45 μm). The concentration of this saturated solution was determined by means of UV spectroscopy in comparison with a calibration curve.

SMILES	photostability (in words) [1]	melting point [°C]	solubility in Crodamol DA [2] [%]	solubility in Cétiol LC [2] [%]	product detected after irradiation ([1]; MeOH solution, 150 W Hg-lamp with Pyrex filter, UV-absorption at 358 nm, after 14 minutes of irradiation) [%]	solubility in Cétiol LC (in words) ([2]; Cétiol LC)	solubility in Crodamol DA (in words) ([2]; Crodamol DA)
CCCCC(CC)COC(=O)/C(C#N)=C/c1ccc(-c2nc3ccccc3o2)cc1 (stereo not shown) [Example 4, 2-Cyano-3-{4-benzoxazol-2-yl-phenyl}-acrylic acid 2-ethylhexyl ester]	photostable after E/Z isomerisation	84 to 85	2.8	1.6	–	–	–
CCOCCOCCOc1ccc2nc(-c3ccc(C=C(C(=O)OCC)C(=O)OCC)cc3)oc2c1 [Example 8]	photostable	43 to 45	–	4.6	–	–	–
CCOC(=O)C(=Cc1ccc(-c2nc3ccccc3o2)cc1)C(=O)OCC [Example 1, 2-(4-Benzoxazol-2-yl-benzylidene)-malonic acid diethyl ester]	–	99 to 102	11	4.5	> 90	–	–
CCOC(=O)C(=Cc1ccc(-c2nc3ccc(O)cc3o2)cc1)C(=O)OCC [Example 6, 2-(4-[6-Hydroxy-benzoxazol-2-yl]-benzylidene)-malonic acid diethyl ester]	photostable	153 to 155	1.6	–	–	–	–
CCCCOC(=O)C(=Cc1ccc(-c2nc3ccccc3o2)cc1)C(=O)OCCCC [Example 3, 2-(4-Benzoxazol-2-yl-benzylidene)-malonic acid dibutyl ester]	photostable	–	–	–	–	miscible	–
C=C(COc1ccc2nc(-c3ccc(C=C(C(=O)OCC)C(=O)OCC)cc3)oc2c1)[Si](C)(O[Si](C)(C)C)O[Si](C)(C)C [Example 9]	excellent photostability	–	–	–	–	–	unlimited solubility
CCCCC(CC)COc1ccc2nc(-c3ccc(C=C(C(=O)OCC)C(=O)OCC)cc3)oc2c1 (stereo not shown) [Example 7]	photostable	50 to 52	–	10.2	–	–	–
CCCCC(CC)COC(=O)/C(C#N)=C/c1ccc(-c2nc3cc(C(C)(C)C)ccc3o2)cc1 (stereo not shown) [Example 2, 2-Cyano-3-{4-[5-tert.-butyl-benzoxazol-2-yl]-phenyl}-acrylic acid 2-ethylhexyl ester]	photostable	80 to 81	7.4	3.8	–	–	–
